Patent publication US8445492B2, “Method for inhibiting growth of cancer cells and cell telomere and diseases of cell proliferation by using heteroannelated anthraquinone derivative compounds” (National Defense Medical Center, priority 2008, dated 2013)
Read-outs that look alike come from different tables or passages of the source.

Tests used:
[1] = test system: NCI-H226; conditions: for TGI: NCI-H226
[2] = test system: SK-MEL-2; assay: in vitro test at 1.0×10^−5 M, Skin cancer cell; assay type: cell-based; conditions: 1.0×10^−5 molal concentration (M)
[3] = test system: UO-31; assay: in vitro test at 1.0×10^−5 M, Kidney cancer cell; assay type: cell-based; conditions: 1.0×10^−5 molal concentration (M)
[4] = test system: MALME-3M; assay: in vitro test at 1.0×10^−5 M, Skin cancer cell; assay type: cell-based; conditions: 1.0×10^−5 molal concentration (M)
[5] = test system: HOP-92; assay: in vitro test at 1.0×10^−5 M, Non-small cell lung cancer cell; assay type: cell-based; conditions: 1.0×10^−5 molal concentration (M)
[6] = test system: OVCAR-4; assay: in vitro test at 1.0×10^−5 M, Ovary cancer cell; assay type: cell-based; conditions: 1.0×10^−5 molal concentration (M)
[7] = test system: A549/ATCC; conditions: for TGI: A549/ATCC
[8] = test system: MCF7; assay: in vitro test at 1.0×10^−5 M, Breast cancer cell; assay type: cell-based; conditions: 1.0×10^−5 molal concentration (M)
[9] = test system: U251; assay: in vitro test at 1.0×10^−5 M, CNS cancer cell; assay type: cell-based; conditions: 1.0×10^−5 molal concentration (M)
[10] = test system: SN12C; assay: in vitro test at 1.0×10^−5 M, Kidney cancer cell; assay type: cell-based; conditions: 1.0×10^−5 molal concentration (M)
[11] = test system: HOP-62; conditions: for TGI: HOP-62
[12] = test system: U251; assay: NCI DTP in-vitro dose response, CNS Cancer; assay type: cell-based
[13] = test system: KM12; assay: NCI DTP in-vitro dose response, Colon Cancer; assay type: cell-based
[14] = test system: HS 578T; assay: NCI DTP in-vitro dose response, Breast Cancer; assay type: cell-based
[15] = test system: M14; assay: NCI DTP in-vitro dose response, Melanoma; assay type: cell-based
[16] = test system: SK-OV-3; assay: NCI DTP in-vitro dose response, Ovarian Cancer; assay type: cell-based
[17] = test system: OVCAR-5; assay: NCI DTP in-vitro dose response, Ovarian Cancer; assay type: cell-based
[18] = test system: NCI/ADR-RES; assay: NCI DTP in-vitro dose response, Breast Cancer; assay type: cell-based
[19] = test system: ACHN; assay: NCI DTP in-vitro dose response, Renal Cancer; assay type: cell-based
[20] = test system: SK-MEL-2; assay: NCI DTP in-vitro dose response, Melanoma; assay type: cell-based
[21] = test system: MALME-3M; assay: NCI DTP in-vitro dose response, Melanoma; assay type: cell-based
[22] = test system: UACC-62; assay: NCI DTP in-vitro dose response, Melanoma; assay type: cell-based
[23] = test system: HT29; assay: NCI DTP in-vitro dose response, Colon Cancer; assay type: cell-based

What does the source list for `CCc1nc2ccc3c(c2[nH]1)C(=O)c1ccccc1C3=O` [No. 4, 2-Ethyl-1(3)H-anthra[1,2-d]imidazole-6,11-dione]?
Percent Growth ([1]; Log10 Concentration −4.0): 22%; Percent Growth ([1]; Log10 Concentration −5.0): 63%; Percent Growth ([1]; Log10 Concentration −6.0): 85%; Percent Growth ([1]; Log10 Concentration −7.0): 89%; Percent Growth ([1]; Log10 Concentration −8.0): 85%; TGI [1]: >1.00E−4; inhibition effect on cancer cell line (Table 2 value) [2]: 40.07; inhibition effect on cancer cell line (Table 2 value) [3]: 23.94; inhibition effect on cancer cell line (Table 2 value) [4]: 56.94; inhibition effect on cancer cell line (Table 2 value) [5]: 41.43; inhibition effect on cancer cell line (Table 2 value) [6]: 48.81; TGI [7]: >1.00E−4; Percent Growth ([7]; Log10 Concentration −4.0): 17%; Percent Growth ([7]; Log10 Concentration −5.0): 60%; Percent Growth ([7]; Log10 Concentration −6.0): 97%; Percent Growth ([7]; Log10 Concentration −7.0): 100%; Percent Growth ([7]; Log10 Concentration −8.0): 91%; inhibition effect on cancer cell line (Table 2 value) [8]: 69.82; inhibition effect on cancer cell line (Table 2 value) [9]: 60.13; inhibition effect on cancer cell line (Table 2 value) [10]: 68.53; TGI [11]: >1.00E−4; Percent Growth ([11]; Log10 Concentration −4.0): 38%; Percent Growth ([11]; Log10 Concentration −5.0): 72%; Percent Growth ([11]; Log10 Concentration −6.0): 87%; Percent Growth ([11]; Log10 Concentration −7.0): 94%; Percent Growth ([11]; Log10 Concentration −8.0): 90%

What does the source list for `O=C1c2ccccc2C(=O)c2c1ccc1nsnc21` [No. 22, Anthra[2,1-c][1,2,5]thiadiazole-6,11-dione]?
Percent Growth ([1]; Log10 Concentration −4.0): −5%; Percent Growth ([1]; Log10 Concentration −5.0): 63%; Percent Growth ([1]; Log10 Concentration −6.0): 75%; Percent Growth ([1]; Log10 Concentration −7.0): 95%; Percent Growth ([1]; Log10 Concentration −8.0): 97%; TGI [1]: 8.53E−5; GI50 ([12]; Homo sapiens, U-251): 1.6 µM; CC50 ([12]; Homo sapiens, U-251, read-out: LC50): 8.32 µM; Percent Growth ([12]; Log10 Concentration −4.0): −63%; Percent Growth ([12]; Log10 Concentration −5.0): −61%; Percent Growth ([12]; Log10 Concentration −6.0): 78%; Percent Growth ([12]; Log10 Concentration −7.0): 104%; Percent Growth ([12]; Log10 Concentration −8.0): 106%; TGI ([12]; U251): 3.65E−6; GI50 ([13]; Homo sapiens, KM12): 11.4 µM; CC50 ([13]; Homo sapiens, KM12, read-out: LC50): 94.8 µM; TGI ([13]; KM12): 3.28E−5; Percent Growth ([13]; Log10 Concentration −4.0): −53%; Percent Growth ([13]; Log10 Concentration −5.0): 56%; Percent Growth ([13]; Log10 Concentration −6.0): 103%; Percent Growth ([13]; Log10 Concentration −7.0): 108%; Percent Growth ([13]; Log10 Concentration −8.0): 107%; TGI ([14]; HS 578T): >1.00E−4; GI50 ([14]; Homo sapiens, Hs-578T): 5.03 µM; CC50 ([14]; Homo sapiens, Hs-578T, read-out: LC50): > 100 µM; Percent Growth ([14]; Log10 Concentration −4.0): 21%; Percent Growth ([14]; Log10 Concentration −5.0): 29%; Percent Growth ([14]; Log10 Concentration −6.0): 100%; Percent Growth ([14]; Log10 Concentration −7.0): 114%; Percent Growth ([14]; Log10 Concentration −8.0): 109%; GI50 ([15]; Homo sapiens, M14): 2.44 µM; CC50 ([15]; Homo sapiens, M14, read-out: LC50): > 100 µM; Percent Growth ([15]; Log10 Concentration −4.0): −41%; Percent Growth ([15]; Log10 Concentration −5.0): −32%; Percent Growth ([15]; Log10 Concentration −6.0): 102%; Percent Growth ([15]; Log10 Concentration −7.0): 100%; Percent Growth ([15]; Log10 Concentration −8.0): 100%; TGI ([15]; M14): 5.78E−6; GI50 ([16]; Homo sapiens, SK-OV-3): 2.26 µM; CC50 ([16]; Homo sapiens, SK-OV-3, read-out: LC50): 23.6 µM; Percent Growth ([16]; Log10 Concentration −4.0): −97%; Percent Growth ([16]; Log10 Concentration −5.0): −22%; Percent Growth ([16]; Log10 Concentration −6.0): 89%; Percent Growth ([16]; Log10 Concentration −7.0): 90%; Percent Growth ([16]; Log10 Concentration −8.0): 102%; TGI ([16]; SK-OV-3): 6.35E−6; GI50 ([17]; Homo sapiens, OVCAR-5): 2.18 µM; CC50 ([17]; Homo sapiens, OVCAR-5, read-out: LC50): 9.06 µM; Percent Growth ([17]; Log10 Concentration −4.0): −58%; Percent Growth ([17]; Log10 Concentration −5.0): −57%; Percent Growth ([17]; Log10 Concentration −6.0): 105%; Percent Growth ([17]; Log10 Concentration −7.0): 94%; Percent Growth ([17]; Log10 Concentration −8.0): 99%; TGI ([17]; OVCAR-5): 4.44E−6; GI50 ([18]; Homo sapiens, NCI/ADR-RES): 0.432 µM; CC50 ([18]; Homo sapiens, NCI/ADR-RES, read-out: LC50): > 100 µM; Percent Growth ([18]; Log10 Concentration −4.0): −17%; Percent Growth ([18]; Log10 Concentration −5.0): −10%; Percent Growth ([18]; Log10 Concentration −6.0): 20%; Percent Growth ([18]; Log10 Concentration −7.0): 102%; Percent Growth ([18]; Log10 Concentration −8.0): 107%; TGI ([18]; NCI/ADR-RES): 4.80E−6; TGI ([19]; ACHN): 3.33E−6; GI50 ([19]; Homo sapiens, ACHN): 1.71 µM; Percent Growth ([19]; Log10 Concentration −4.0): −39%; Percent Growth ([19]; Log10 Concentration −5.0): −82%; Percent Growth ([19]; Log10 Concentration −6.0): 90%; Percent Growth ([19]; Log10 Concentration −7.0): 114%; Percent Growth ([19]; Log10 Concentration −8.0): 107%; GI50 ([20]; Homo sapiens, SK-MEL-2): 2.38 µM; CC50 ([20]; Homo sapiens, SK-MEL-2, read-out: LC50): > 100 µM; Percent Growth ([20]; Log10 Concentration −4.0): −32%; Percent Growth ([20]; Log10 Concentration −5.0): −22%; Percent Growth ([20]; Log10 Concentration −6.0): 94%; Percent Growth ([20]; Log10 Concentration −7.0): 109%; Percent Growth ([20]; Log10 Concentration −8.0): 110%; TGI ([20]; SK-MEL-2): 6.42E−6; TGI [7]: 5.94E−6; Percent Growth ([7]; Log10 Concentration −4.0): −18%; Percent Growth ([7]; Log10 Concentration −5.0): −27%; Percent Growth ([7]; Log10 Concentration −6.0): 92%; Percent Growth ([7]; Log10 Concentration −7.0): 93%; Percent Growth ([7]; Log10 Concentration −8.0): 104%; GI50 ([21]; Homo sapiens, Malme-3M): 2.37 µM; CC50 ([21]; Homo sapiens, Malme-3M, read-out: LC50): 9.55 µM; Percent Growth ([21]; Log10 Concentration −4.0): −72%; Percent Growth ([21]; Log10 Concentration −5.0): −53%; Percent Growth ([21]; Log10 Concentration −6.0): 112%; Percent Growth ([21]; Log10 Concentration −7.0): 115%; Percent Growth ([21]; Log10 Concentration −8.0): 102%; TGI ([21]; MALME-3M): 4.76E−6; GI50 ([22]; Homo sapiens, UACC-62): 2.31 µM; CC50 ([22]; Homo sapiens, UACC-62, read-out: LC50): 96.2 µM; Percent Growth ([22]; Log10 Concentration −4.0): −50%; Percent Growth ([22]; Log10 Concentration −5.0): −23%; Percent Growth ([22]; Log10 Concentration −6.0): 92%; Percent Growth ([22]; Log10 Concentration −7.0): 91%; Percent Growth ([22]; Log10 Concentration −8.0): 89%; TGI ([22]; UACC-62): 6.29E−6; TGI ([23]; HT29): 7.36E−6; GI50 ([23]; Homo sapiens, HT-29): 2.75 µM; CC50 ([23]; Homo sapiens, HT-29, read-out: LC50): 81 µM; Percent Growth ([23]; Log10 Concentration −4.0): −53%; Percent Growth ([23]; Log10 Concentration −5.0): −16%; Percent Growth ([23]; Log10 Concentration −6.0): 101%; Percent Growth ([23]; Log10 Concentration −7.0): 105%; Percent Growth ([23]; Log10 Concentration −8.0): 104%; TGI [11]: 1.21E−5; Percent Growth ([11]; Log10 Concentration −4.0): −49%; Percent Growth ([11]; Log10 Concentration −5.0): 4%; Percent Growth ([11]; Log10 Concentration −6.0): 107%; Percent Growth ([11]; Log10 Concentration −7.0): 107%; Percent Growth ([11]; Log10 Concentration −8.0): 107%
